Reference: BigSolDB 2.1

Details: in water

NCCS(=O)(=O)O
Details | solubility (mole fraction)
278.05 K | 0.00796
281.25 K | 0.00932
288.75 K | 0.0119
289.85 K | 0.0128
298.15 K | 0.017
305.35 K | 0.0203
308.25 K | 0.0213
310.95 K | 0.0233
314.85 K | 0.0261
318.35 K | 0.0291
321.55 K | 0.0321
331.75 K | 0.0403
340.95 K | 0.0477
345.15 K | 0.0526
350.25 K | 0.0585
353.55 K | 0.0646
